Entries after “also recorded” stand apart in the source; their conditions may differ. *1 amine or outer side, *2 acyl side, *3 side chain or, on linkers, in order; H or OH if unused. Where no end group is shown, it is not given here. [ ]: non-standard residue; d: D form. ξ: configuration not given here. +10F = isotope-labelled Phe, +10, O=[13C]([13C@H]([13CH2][13c]1[13cH][13cH][13cH][13cH][13cH]1)[15NH][*:1])[*:2]; ξβ3hPhg(2-NO2) = O=C(CC(N[*:1])c1ccccc1[N+](=O)[O-])[*:2]; FAM = carboxyfluorescein fluorophore label; AF488 = Alexa Fluor 488 fluorophore label; +1A = isotope-labelled Ala, +1; +1F = isotope-labelled Phe, +1; +2G = isotope-labelled Gly, +2; +4A = isotope-labelled Ala, +4; F+10 = not defined here; A+4 = not defined here; G+2 = not defined here; G+3 = not defined here
Tests used:
[1] = system: P. aeruginosa strain PA01 lung infection; assay: urinary reporter ELISA after intravenous ABNs in bacterial pneumonia model; type: in vivo, mice; settings: for urine signal in ciprofloxacin-treated versus doxycycline-treated mice / urine signal relative to healthy controls: 24 hours post-infection; for urine signal after ciprofloxacin treatment above baseline: 7 days post-infection, 4 days of ciprofloxacin; for increase in urinary reporter after initiation of infection relative to pre-infection: ABNs injected intravenously 24 hours post infection, urine at 1 hour; for ROC AUC, infected from healthy mice: FIG. 11D, n=9 mice; for ROC AUC, ciprofloxacin treated from pre-treatment signal (Treatment): FIG. 12, 7 days post-infection; for ROC AUC, infected from healthy (Infection): FIG. 12, administered prior to drug treatment; for ROC AUC, effective versus ineffective treatment (doxycycline-treated vs ciprofloxacin-treated): treatment started 5 hours post-infection, ABNs 24 hours post-infection
From the text: Peptide substrates were coupled to 40 kDa 8-arm PEG-MAL via terminal cysteines on each peptide to generate ABNs for use in vivo (Dudani et al., Adv Funct Mater, 26, 2919, 2016; Kwong et al., Proc Natl Acad Sci, 112, 12627, 2015). Each substrate is barcoded with an independent ligand and a biotin on a stable urinary peptide reporter that can be measured by a sandwich ELISA after proteolysis of the substrate, release of the reporter, and clearance into the urine (Warren et al., Proc Natl Acad Sci USA, 111, 3671, 2014; Lin et al., ACS Nano, 0) (FIGS. 11A and 16). The selection of a pair of distinct, ligand-encoded reporters enables simultaneous, multiplexed administration of the two nanosensors. Following initiation of the infection, ABNs were injected intravenously after 24 hours and collected urine an hour after the administration of the nanosensors.
To evaluate whether the presently disclosed ABNs could be used to monitor clearance of infection, PA01 was instilled intratracheally into mice, the pair of ABNs was administered the following day to confirm and set a baseline for infection in each individual, and then antibiotic treatment was initiated with ciprofloxacin, a commonly used broad spectrum antibiotic with activity against gram-negative bacteria, including PA01 (Zeiler et al., Ciprofloxacin, 14, 1986). The diagnostic ABN injection and urine collection was repeated 7 days post-infection (with an interceding 4 days of drug treatment) to determine whether the substrates could monitor recovery from infection following effective antibiotic treatment (FIG. 12A). After ciprofloxacin treatment, LAS urine signal returned to baseline, though ELA remained elevated (1.2-fold and 2.2-fold above baseline, respectively; […]).
Individual responses to antimicrobial treatment can be highly variable, dependent upon the strain of pathogen and the presence of antibiotic resistance, and current clinical tests take 24-72 hours to identify antibiotic susceptibility (Caliendo et al., Clin Infect Dis, 57, S139, 2013). In addition, current clinical tests used to visualize lung infections (e.g., chest X-ray and computed tomography) are often unable to distinguish active infections from those that have been adequately treated until several weeks after antibiotic therapy is complete, because the airspace opacifications characteristic of pneumonia remain apparent on routine radiography screens (Bruns et al., J Gen Intern Med, 25, 203, 2010). Therefore, the ability of the infection-tracking ABNs to identify successful versus insufficient treatment on an acute time-scale shortly after therapeutic initiation was sought to be evaluated. Only 5 hours after establishing lung infections with PA01, antibiotic treatment was initiated with either ciprofloxacin (efficacious against P. aeruginosa) or doxycycline (ineffective against gram-negative bacteria including P. aeruginosa) (FIG. 13A). The following day, multiplexed LAS-E and ELA-E ABNs were administered and urine was collected. […] The persistent Pseudomonas immunostaining observed following ciprofloxacin treatment might be derived from residual Pseudomonas antigens remaining from lysed bacteria that had not yet been cleared by the immune system. Alternatively, the reduced LAS sensor reading in these treated mice could reflect a suppression of LasA secretion from bacteria as they are killed by the potent antibiotic.
All animal studies were approved by Massachusetts Institute of Technology's Committee on Animal Care. For infection studies, 5-7 week old female CD-1 mice were innoculated intratracheally with 1.25×10^6 CFU of P. aeruginosa strain PA01 in 50 μL of PBS. Bacteria were cultured overnight in LB broth, then subcultured and grown to log phase (OD600≈0.5). Bacteria were pelleted, washed with sterile PBS, and then resuspended to the requisite concentration for intratracheal administration. Mice were administered buprenorphine and meloxicam several hours after infection. […]

[2] = system: 15 proteases in the LUAD protease panel; assay: in vitro recombinant protease screen of FRET-paired substrates; type: biochemical; settings: fluorescence fold change at 45 minutes; 1 μM substrate, 12.5 nM recombinant enzyme; MP metallo-, SP serine, AP aspartic protease
From the text: Hundreds of peptide sequences have been previously designed and validated as protease substrates, leveraging known catalytic specificities of different protease families, published datasets and substrate sequences in databases like cutDB and MEROPS (Igarashi et al., Nucleic Acids Res 35, D546-549, 2007; Rawlings et al., Nucleic Acids Res 46, D624-D632, 2018). Fourteen of these substrates were nominated in an effort to cover the specificity profiles of metallo-, serine and aspartic endoproteases, all of which were included in the LUAD protease panel, and the catalytic activity of each protease-substrate pair was characterized. Quenched probes that incorporated the 14 peptide substrates were synthesized such that they fluoresce upon proteolytic cleavage to enable real-time monitoring of protease activity in vitro (FIG. 3A and Table 2). Each probe was incubated with each protease in the panel and fluorescence was monitored over 45 minutes. Shown are sample kinetic plots monitoring dequenching of the 14 FRET-paired probes when incubated with (above) and without (below) recombinant matrix metalloproteinase 3 (MMP3) (FIG. 3B). […] See also FIG. 19.
Fluorogenic protease substrates were synthesized by CPC Scientific. Recombinant proteases were purchased from Enzo Life Sciences, R&D Systems and Haematologic Technologies. For recombinant protease assays, fluorogenic substrates PPQ1-14 (1 μM final concentration) were incubated in 30 μL final volume in appropriate enzyme buffer, according to manufacturer specifications, with 12.5 nM recombinant enzyme at 37° C. (FIG. 3). Proteolytic cleavage of substrates was quantified by increases in fluorescence over time by fluorimeter (Tecan Infinite M200 Pro). Enzyme cleavage rates were quantified as relative fluorescence increase over time normalized to fluorescence before addition of protease. Hierarchical clustering was performed in GENE-E, using fluorescence fold changes at 45 minutes.

[3] = system: Kras and p53 mutant lung adenocarcinoma (KP mice); assay: urinary ABN readout and random forest classification in KP lung adenocarcinoma model; type: in vivo; settings: KP10.5 wk urine
Protocol: To characterize ABN performance in vivo, 14 protease-sensitive ABNs were administered to KP mice and healthy, age and sex-matched controls at 5, 7.5 and 10.5 weeks after tumor initiation. Mouse bladders were voided one hour after intrapulmonary delivery and all fresh urine produced during the subsequent hour (from 60-120 minutes after administration) was pooled and collected. LC-MS/MS was performed and peak area ratios (defined as peak area of urinary reporter divided by peak area of spiked-in internal standard) of protease-sensitive reporters were mean-normalized within each sample to reduce mouse-to-mouse variation.
A random forest classifier was then sought to be built to enable prospective diagnosis of lung cancer in KP mice. Random forest is a high-performance classifier, applicable to a wide variety of classification tasks, that generates a collection of decision trees (a “forest”) that are sampled to produce classification results (Breiman, Machine Learning 45, 5-32, 2001). A random forest classifier was trained using 50% of control mice at 5 weeks, 7.5 weeks and 10.5 weeks, as well as 50% of KP mice at 7.5 weeks (FIG. 6A). The classifier assigned a probability that each mouse belonged to either the KP cohort or the healthy control cohort (FIG. 6B, “Training” panel), achieving perfect separation of control and KP mice. The classifier was then sought to be tested on an independent validation cohort consisting of classifier-naive KP mice at 5 weeks, 7.5 weeks and 10.5 weeks post-induction, as well as the remaining control mice from each time point.
Male B6/SV129 Kras^LSL-G12D/+; Trp53^fl/fl (KP) mice between 18 and 30 weeks old were used for lung adenocarcinoma experiments. Tumors were initiated, as described previously (DuPage et al., Nat Protoc 4, 1064-1072 (2009)), by the intratracheal administration of 50 μL of adenovirus-SPC-Cre (2.5×10^8 PFU in Opti-MEM with 10 mM CaCl2)) under isoflurane anesthesia. […] Tumor growth was monitored by micro computed tomography (microCT) imaging (General Electric) and was scored by a blinded radiation oncologist using MicroView (Parallax Innovations) (Table 4). Tumor volumes were calculated by using the ROI sphere/elliptical tool.
ABN constructs (GluFib-Substrate-PEG-840 kDa) for urinary experiments were synthesized by CPC Scientific (Sunnyvale, CA). ABNs were dosed (50 μL total volume, 20 μM concentration per ABN) by intratracheal intubation, as described above. Bladders were voided 60 minutes after ABN administration and all urine produced 60-120 min after ABN administration was collected using custom tubes in which the animals rest upon 96-well plates that capture urine. Urine was pooled and frozen at −80° C. until analysis by LC-MS/MS.
Liquid chromatography/tandem mass spectrometry was performed by Syneos Health (Princeton, NJ) using a Sciex 6500 triple quadrupole instrument. Briefly, urine samples were treated with UV irradiation to photocleave the ANP linker and liberate the Glu-Fib reporter from residual peptide fragments. Samples were extracted by solid-phase extraction and analyzed by multiple reaction monitoring by LC-MS/MS to quantify concentration of each Glu-Fib mass variant. Analyte quantities were normalized to a spiked-in internal standard and concentrations were calculated from a standard curve using peak area ratio (PAR) to the internal standard. Mean normalization was performed on PAR values to account for mouse-to-mouse differences in ABN inhalation efficiency and urine concentration.
Principal component analysis (PCA) was performed on mean normalized PAR values in the R statistical environment (Team, R.C. R, R Foundation for Statistical Computing, Vienna, Austria, 2017) using the prcomp function. Binary classification was performed using the Caret package (Kuhn, M. caret: Classification and Regression Training. (2017)) in the R statistical environment). […]

| Substance | urine signal in ciprofloxacin-treated versus doxycycline-treated mice [1] | urine signal after ciprofloxacin treatment above baseline [1] | increase in urinary reporter after initiation of infection relative to pre-infection [1] | ROC AUC, infected from healthy mice [1] | ROC AUC, ciprofloxacin treated from pre-treatment signal (Treatment) [1] | ROC AUC, infected from healthy (Infection) [1] | urine signal relative to healthy controls ([1]; ciprofloxacin-treated mice) | urine signal relative to healthy controls ([1]; doxycycline-treated mice) | ROC AUC, effective versus ineffective treatment (doxycycline-treated vs ciprofloxacin-treated) [1] | protease class(es) cleaving the substrate in vitro [2] | urinary reporter enrichment relative to healthy controls [3] |
| --- | --- | --- | --- | --- | --- | --- | --- | --- | --- | --- | --- |
| ELA-E: elastase substrate with FAM ligand-encoded reporter and biotin (SEQ ID NO: 48), coupled to 40 kDa 8-arm PEG-MAL ([dE]G[dV][dN][dD][dN][dE][dE]G[dF][dF][dS][dA][dR]K(FAM)GGAAFAGC; also: biotin, site not given here, coupled to 40 kDa 8-arm PEG-MAL, site not given here) | not significantly different | 2.2 fold | 2.6 fold | 1.00 | 0.72 | 1.00 | robustly elevated | robustly elevated | 0.536 | – | – |
| PP10: ABN: reporter e(+2G)(+6V)ndneeG(+10F)(+1F)s(+1A)r, ANP, substrate ILSRIVGGG, nanocarrier PEG8-40 kDa (chain 1 [dE][+2G][+6V][dN][dD][dN][dE][dE]G[+10F][+1F][dS][+1A][dR][ξβ3hPhg(2-NO2)]; also: ANP photolabile linker joins reporter and substrate, sites not given here, PEG8-40 kDa nanocarrier, site not given here) | – | – | – | – | – | – | – | – | – | MP/SP/AP | – |
| PP11: ABN: reporter e(+3G)(+1V)ndnee(+2G)(+10F)Fs(+4A)r, ANP, substrate SGSKIIGGG, nanocarrier PEG8-40 kDa (chain 1 [dE][G+3][V+1][dN][dD][dN][dE][dE][G+2][F+10]F[dS][A+4][dR]; reading uncertain; also: ANP photolabile linker, attachment not given here, PEG8-40 kDa nanocarrier, attachment not given here, how reporter and substrate are joined not given here, printed as PP11: ABN: reporter e(+3G)(+1V)ndnee(+2G)(+10F)Fs(+4A)r, ANP, substrate SGSKIIGGG, nanocarrier PEG8-40 kDa) | – | – | – | – | – | – | – | – | – | serine protease-sensitive; also recorded: only by serine proteases | most significantly enriched |
| PP04: ABN: reporter e(+2G)Vndnee(+2G)FFs(+4A)r, ANP, substrate PLGLRSW, nanocarrier PEG8-40 kDa (chain 1 [dE][+2G]V[dN][dD][dN][dE][dE][+2G]FF[dS][+4A][dR][ξβ3hPhg(2-NO2)]; also: ANP photolabile linker joins reporter and substrate, sites not given here, PEG8-40 kDa nanocarrier, site not given here) | – | – | – | – | – | – | – | – | – | SP/MP | – |
| LAS-E: LasA substrate with AF488 ligand-encoded reporter and biotin (SEQ ID NO: 46), coupled to 40 kDa 8-arm PEG-MAL ([dE]G[dV][dN][dD][dN][dE][dE]G[dF][dF][dS][dA][dR]K(AF488)GGLGGGAGC; also: biotin, site not given here, coupled to 40 kDa 8-arm PEG-MAL, site not given here) | significantly lower | 1.2 fold | 1.8 fold | 0.86 | 0.88 | 0.92 | – | elevated | 0.893 | – | – |

— patent publication US12173349B2, “Lung protease nanosensors and uses thereof” (Massachusetts Institute of Technology, priority 2018, dated 2024)
